Measured values as given in patent publication US10875829B1, “Azetidine derivatives useful as modulators of cortical catecholaminergic neurotransmission” (Integrative Research Laboratories Sweden AB, priority 2016, dated 2020).
Structures can show the parent of a compound that is named as a salt. Where two headings read alike, the source gives them in different places. Marks after values point to notes of the source that are not given here.

Tests used:
NA, DA and 5-HT = assay: In vivo brain microdialysis: extracellular monoamines in striatum and frontal cortex; parameters: species or system Sprague-Dawley rats; details: for response vs control in vivo at 50 µmol/kg / response vs control in vivo at 16.7 µmol/kg: Rattus norvegicus, sc
From the text: The microdialysis technique is a well-established technique for measuring extracellular levels of neurotransmitters (Ungerstedt, J Int Med, 1991, 230; 365-73). The microdialysis technique was used to measure the effect of compounds disclosed herein upon the efflux of monoamine transmitters (NA, DA and 5-HT) in striatum and frontal cortex in conscious, freely moving rats.
Male Sprague-Dawley rats weighing 280-320 g were used throughout the experiments. Before the experiment the animals were housed in groups, maximum five animals in each cage, with free access to water and food. The animals were housed at least one week prior to surgery and use in the experiments.
A modified version (Waters et al., J Neural Transm Gen Sect, 1994, 98(1); 39-55) of the !-shaped probe (Santiago and Westerink, N-S Arch Pharmacol, 1990, 342; 407-14) with the AN69 polyacrylonitrile/sodium methyl sulfonate copolymer (HOSPAL; o.d/i.d. 310/220 μm: dialysis membrane (Gambro, Lund, Sweden) was used in the microdialysis experiments. In the dorsal striatum, probes with an exposed length of 3 mm of dialysis membrane were used and in the prefrontal cortex the corresponding length was 2.5 mm. The rats were operated under isoflurane inhalation anesthesia while mounted into a Kopf stereotaxic instrument. Coordinates were calculated relative to bregma; dorsal striatum AP+1.0, ML±2.6, DV 6.2; Pf cortex, AP+3.2, ML±1.2, DV −4.0 8°, according to Paxinos and Watson (New York, Academic Press, 1986; FIG. 8 and FIG. 14). The dialysis probe was positioned in a burr hole under stereotaxic guidance and cemented with phosphatine dental cement (DAB Dental).
The rats were housed individually in cages for 48 h before the dialysis experiments, allowing them to recover from surgery and minimizing the risk of drug interactions with the anesthetics during the following experiments. During this period the rats had free access to food and water. On the day of the experiment the rats were connected to a micro-perfusion pump via a swivel and were replaced in the cage where they could move freely within its confinements. The perfusion medium was a Ringer's solution containing (in mmol/l): NaCl; 140, CaCl2); 1.2, KCl; 3.0, MgCl2; 1.0 (Moghaddam and Bunney. Neurochem., 1989, 53; 652-4). The pump was set to a perfusion speed of 2 μl/min and 40 μl sample volume were collected every 20 min.
The rats were perfused for at least 40 min before sampling began. Five fractions of each 20 min were collected and the last three were used for the establishment of the baseline. After collection of baseline fractions, the pharmacological challenge to the dialysis experiment started. Test compounds were administrated by injection (s.c.) in a volume of 5 ml/kg, with 0.9% NaCl (saline) as vehicle.
The analytical method were based on two chromatographic separations dedicated for amines or acids. Two chromatographic systems shared a common auto injector with a 10-port valve and two sample loops for simultaneous injection on the two systems.
The acids were separated by reversed phase chromatography while the amines were separated by reversed phase ion pairing chromatography preceded by a reverse phase separation in a column switching configuration. Three separation columns (Luna C18 (2), dp 3 μm, 2 mm i.d., Phenomenex) of different lengths were used. Electrochemical detection was accomplished on glassy carbon electrodes (MF-1000, Bioanalytical Systems, Inc.)
The aqueous mobile phase (0.6 ml/min) for the acid system contained citric acid (40 mM, dipotassium hydrogen phosphate 10 mM, methanol 8-11% (v/v) and EDTA 0.1 mM. Column length was 30 mm and detection potential relative to Ag/AgCl reference was 0.74V.
The aqueous ion pairing mobile phase (0.4 ml/min) for the amine system contained citric acid 5 mM, sodium citrate 10 mM, acetone 9% (v/v), tetrahydrofurane 3% (v/v), dodecane sulphonic acid 0.025 mM, and EDTA 0.1 mM. Column length was 50 mm and the preceding column was 20 mm. […]

DOPAC = assay: In vivo neurochemistry: tissue levels of DOPAC in brain regions; parameters: species or system rats; details: 100 μmol/kg s.c., 65 min before sacrifice, control saline, n=5
From the text: The change in turnover of dopamine in the terminal areas of the ascending dopaminergic projections of the mammalian brain can be illustrated by measuring of changes in biochemical indices in the brain e.g. changes in concentrations of dopamine metabolites such as 3,4-dihydroxyphenyl-acetic acid (DOPAC) in the striatum and frontal cortex.
The measurement of the tissue content of DOPAC is well established in the field of research since the 1960's. In short, male Sprague-Dawley rats are administered the test compound 60 minutes prior to decapitation. The brain is rapidly taken out and dissected. The striatum is rapidly frozen and subsequently quantitatively analyzed with respect to its content of DOPAC by means of HPLC and electrochemical detection. The number of animals used for each test compound/vehicle is 5/group.
After the behavioural activity sessions, the rats were decapitated and their brains rapidly taken out and put on an ice-cold petri-dish. The brains were dissected into a right and a left part of which the right part was analyzed for neurochemicals with HPLC and the left part was analyzed for gene expression. The limbic forebrain, the striatum, the frontal cortex, the hippocampus and the remaining hemispheral parts of each rat were dissected and frozen. Each brain part was subsequently analyzed with respect to its content of monoamines and their metabolites.
The monoamine transmitter substances (NA (noradrenaline), DA (dopamine), 5-HT (serotonin)) as well as one corresponding acid, (DOPAC (3,4-dihydroxyphenylacetic acid), were quantified in brain tissue homogenates by HPLC separations and electrochemical detection.
The analytical method is based on two chromatographic separations dedicated for amines or acids. Two chromatographic systems share a common auto injector with a 10-port valve and two sample loops for simultaneous injection on the two systems. Both systems are equipped with a reverse phase column (Luna C18 (2), dp 3 μm, 50*2 mm i.d., Phenomenex) and electrochemical detection is accomplished at two potentials on glassy carbon electrodes (MF-1000, Bioanalytical Systems, Inc.). The column effluent is passed via a T-connection to the detection cell or to a waste outlet. This is accomplished by two solenoid valves, which block either the waste or detector outlet. By preventing the chromatographic front from reaching the detector, better detection conditions are achieved. The aqueous mobile phase (0.4 ml/min) for the acid system contains citric acid 14 mM, sodium citrate 10 mM, Methanol 15% (v/v) and EDTA 0.1 mM. Detection potentials relative to Ag/AgCl reference are 0.45 and 0.60V. […] Detection potentials relative to Ag/AgCl reference are 0.45 and 0.65V.
Each compound or saline solution (control) indicated in the above table was administered subcutaneously (s.c.) 65 min before sacrificing the animals. DOPAC results are presented as percent of control means±SEM (standard error of the mean). Statistical significance was assessed using Student's t-test (2 tailed) vs controls. * denotes p<0.05, ** p<0.01, *** p<0.001, n=5.

[1] = 50 μmol/kg s.c., striatum, n=1-3
[2] = 50 μmol/kg s.c., frontal cortex, n=1-3, read-out: 5-HT FC, maximum effect compared to baseline ± SEM
[3] = 50 μmol/kg s.c., striatum, n=1-3, read-out: 5-HT Stri, maximum effect compared to baseline ± SEM
[4] = 50 μmol/kg s.c., striatum, n=1-3, read-out: DA Stri, maximum effect compared to baseline ± SEM
[5] = 50 μmol/kg s.c., frontal cortex, n=1-3, read-out: DA FC, maximum effect compared to baseline ± SEM

Row | Structure (SMILES) | NA Stri, maximum effect compared to baseline ± SEM (NA, DA and 5-HT; [1]) | response vs control in vivo at 50 µmol/kg (NA, DA and 5-HT; [2]) [%] | response vs control in vivo at 50 µmol/kg (NA, DA and 5-HT; [3]) [%] | response vs control in vivo at 50 µmol/kg (NA, DA and 5-HT; [4]) [%] | DOPAC cortex ± SEM (DOPAC) | DOPAC striatum ± SEM (DOPAC) | response vs control in vivo at 50 µmol/kg (NA, DA and 5-HT; [5]) [%] | response vs control in vivo at 50 µmol/kg (NA, DA and 5-HT; 50 μmol/kg s.c., frontal cortex, n=1-3, read-out: NA FC, maximum effect compared to baseline ± SEM) [%] | NA Stri, maximum effect compared to baseline ± SEM (NA, DA and 5-HT; Dose 16.7 μmol/kg s.c, striatum) | response vs control in vivo at 16.7 µmol/kg (NA, DA and 5-HT; Dose 16.7 μmol/kg s.c, frontal cortex, read-out: 5-HT FC, maximum effect compared to baseline ± SEM) [%] | response vs control in vivo at 16.7 µmol/kg (NA, DA and 5-HT; Dose 16.7 μmol/kg s.c, frontal cortex, read-out: DA FC, maximum effect compared to baseline ± SEM) [%] | response vs control in vivo at 16.7 µmol/kg (NA, DA and 5-HT; Dose 16.7 μmol/kg s.c, frontal cortex, read-out: NA FC, maximum effect compared to baseline ± SEM) [%] | response vs control in vivo at 16.7 µmol/kg (NA, DA and 5-HT; Dose 16.7 μmol/kg s.c, striatum, read-out: 5-HT Stri, maximum effect compared to baseline ± SEM) [%] | response vs control in vivo at 16.7 µmol/kg (NA, DA and 5-HT; Dose 16.7 μmol/kg s.c, striatum, read-out: DA Stri, maximum effect compared to baseline ± SEM) [%]
1 | Fc1cccc(OC2CNC2)c1F [Example 1A, 3-(2,3-difluorophenoxy)azetidine hydrochloric acid salt] | 155 ± 33^a % of control | 207 ± 49 | 217 ± 21 | 155 ± 9.6 | 300 ± 26*** % of control means | 53 ± 2*** % of control means |  |  |  |  |  |  |  | 
2 | Fc1cc(F)c(F)c(OC2CNC2)c1 [Example 2, 3-(2,3,5-trifluorophenoxy)azetidine hydrochloric acid salt] |  | 160 ± 32 | 202 ± 5.6 | 134 ± 13 | 121 ± 5.6 % of control means | 96 ± 4 % of control means | 600 ± 5.8 |  |  |  |  |  |  | 
3 | Fc1cc(F)c(F)c(OC2CNC2)c1F [Example 3, 3-(2,3,5,6-tetrafluorophenoxy)-azetidine hydrochloric acid salt] |  | 205 ± 78 | 197 ± 80 | 196 ± 22 | 201 ± 11*** % of control means | 158 ± 3.4*** % of control means | 735 ± 18 |  |  |  |  |  |  | 
4 | Fc1ccc(F)c(OC2CNC2)c1F [Example 20, 3-(2,3,6-trifluorophenoxy)azetidine hydrochloric acid salt] |  | 164 ± 36 | 141 | 146 ± 4 |  |  | 441 ± 35 |  |  |  |  |  |  | 
5 | CCN1CC(Oc2c(F)c(F)cc(F)c2F)C1 [Example 39, 1-ethyl-3-(2,3,5,6-tetrafluorophenoxy)azetidine hydrochloric acid salt] | 334 ± 10^a % of control | 256 | 281 | 218 ± 18 | 191 ± 18** % of control means | 247 ± 13*** % of control means | 359 | 414 |  |  |  |  |  | 
6 | Fc1cc(F)cc(OC2CNC2)c1.O=C(O)C(O)C(O)C(=O)O [Example 52B, 3-(3,5-difluorophenoxy)azetidine (+)-tartaric acid salt] |  |  |  |  | 229 ± 4.6*** % of control means | 72 ± 1.7*** % of control means |  |  | 151^b % of control | 213 ± 86 | 638 ± 106 | 968 ± 176 | 146 ± 18 | 120 ± 6
7 | Fc1cc(F)cc(OC2CNC2)c1 [Example 52C, 3-(3,5-difluorophenoxy)azetidine hydrochloric acid salt] | 196 ± 26^a % of control | 424 ± 119 |  | 147 ± 6 |  |  |  |  |  |  |  |  |  | 
8 | Clc1ccc(OC2CNC2)cc1Cl [Reference Compound, 3-(3,4-dichlorophenoxy)azetidine hydrochloric acid salt, reference compound] | 987 ± 425 % of control | 682 ± 14 |  | 136 ± 48 | 86 ± 5.6 % of control means | 89 ± 2.5 % of control means |  |  |  |  |  |  |  | 
